Drawing on patent publication US20230091047A1 (priority 2019, published 2023), this text covers EC50 and CC50 for twelve molecules.

Data set [1] concerns HBV (HepG2.117 cell line, inducibly HBV producing). In words: Anti-HBV activity: intracellular HBV DNA by real-time PCR in HepG2.117 cells after 3 days of treatment. It counts as cell-based, hepatitis B virus. In outline: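 Read-out is intracellular HBV DNA, measured by real-time PCR using HBV-specific primers and probe. Cells were stable, inducible HBV-producing HepG2.117 (Tet-off). Serially diluted compound was applied for 3 days after replication was induced.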

Another data set is described as follows: in vitro. It counts as cell-based. Conditions: human, HepG2 or HepG2.117 cells, ATPlite, mean value. In outline: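 Luminescent ATP quantitation served as the viability endpoint following a 3- or 4-day incubation with test compounds.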
(Cellular ATP, detected with luciferase, serves as a proxy for viable cell number.)

Where [2] appears, read: 3-days incubation (not marked with *).
[3] abbreviates: Hepatitis B virus, HepG2.117, 72 h, HepG2.117 cells, 3 days of treatment, intracellular HBV DNA by real-time PCR; mean value; read-out: EC50 (μM, mean value).
[4] abbreviates: 3-days incubation (unmarked values).
The mark [5] stands for this setting: Hepatitis B virus, HepG2.117, 72 h, HepG2.117 cells, intracellular HBV DNA by real-time PCR, 3 days of treatment, mean value; read-out: EC50 (μM, mean value).

Usually EC50 stands for the concentration giving half of the maximal effect. For orientation: CC50 means the concentration at which the toxic effect on the cells reaches its halfway point. Read a low CC50 as greater toxicity to the cells.

Where two headings read alike, the source gives them in different places.

Consider `COc1ccc([C@H](C)Nc2nc3c(c(=O)n2-c2ccc(NC(C)=O)cc2)C[C@@H](C)N(C(=O)c2ccc(Cl)c(Cl)c2)C3)cc1` (single isomer, unassigned) [Compound C410b], for which the EC50 in data set [1] (HepG2.117 cells, intracellular HBV DNA by real-time PCR, 3 days of treatment, mean value; read-out: EC50 (μM, mean value)) turned out to be 0.11 µM. The CC50 at 3 days in “in vitro” (setting [2]) was more than 50 µM.

`CNC(=O)c1ccc(-n2c(N(C)C34CC(C3)C4)nc3c(c2=O)C[C@@H](C)N(C(=O)c2ccc(Cl)c(Cl)c2)C3)cc1` [Compound C345, 4-[(6R)-2-[(bicyclo[1.1.1]pentan-1-yl)(methyl)amino]-7-(3,4-dichlorobenzoyl)-6-methyl-4-oxo-5,6,7,8-tetrahydropyrido[3,4-d]pyrimidin-3(4H)-yl]-N-methylbenzamide]: in data set [1] (setting [3]), the EC50 was found to be 0.32 µM. This molecule also showed a 50% cytotoxic concentration (CC50) at 3 days in “in vitro” (setting [4]) of 21.6 µM.

In the case of `CNC(=O)c1ccc(-n2c(N[C@H](c3ccccc3)C3CC3)nc3c(c2=O)C[C@@H](C)N(C(=O)c2ccc(Cl)c(Cl)c2)C3)cc1` (single isomer, unassigned) [Compound C343, 4-[(6R)-2-{[(*S)-cycopropyl(phenyl)methyl]amino}-7-(3,4-dichlorobenzoyl)-6-methyl-4-oxo-5,6,7,8-tetrahydropyrido[3,4-d]pyrimidin-3(4H)-yl]-N-methylbenzamide], in data set [1] (setting [3]), the EC50 was found to be 0.19 µM. The same molecule registered a CC50 at 3 days in “in vitro” (setting [4]) of 13.7 µM.

For `COc1ccc(CNc2nc3c(c(=O)[nH]2)CCN(C(=O)c2ccc(Cl)c(C)c2)C3)cc1` [Compound C60, 7-(4-chloro-3-methylbenzoyl)-2-{[(4-methoxyphenyl)methyl]amino}-5,6,7,8-tetrahydropyrido[3,4-d]pyrimidin-4(3H)-one], the EC50 in data set [1] (setting [3]) was determined as 3.25 µM. Further, it took 23.8 µM to reach half-maximal cytotoxicity in “in vitro” (setting [4]) (CC50 at 3 days).

Consider `CNC(=O)c1cc(-n2c(NC(C)c3ccc(OC(F)(F)F)cc3)nc3c(c2=O)C[C@@H](C)N(C(=O)c2ccc(Cl)c(Cl)c2)C3)[nH]n1` (stereo partly drawn) [Compound C531], for which the EC50 in data set [1] (setting [5]) was 0.21 µM. For the same molecule, it took 26.3 µM to reach half-maximal cytotoxicity in the data set “in vitro” (setting [2]) (CC50 at 3 days).

With `CNC(=O)c1cccc(-n2c(NC(C)C)nc3c(c2=O)C[C@@H](C)N(C(=O)c2ccc(Cl)c(Cl)c2)C3)c1` [Compound C232, 3-[(6R)-7-(3,4-dichlorobenzoyl)-6-methyl-4-oxo-2-[(propan-2-yl)amino]-5,6,7,8-tetrahydropyrido[3,4-d]pyrimidin-3(4H)-yl]-N-methylbenzamide], the EC50 in data set [1] (setting [3]) was determined as 0.15 µM. In “in vitro” (setting [4]), this molecule showed a CC50 at 3 days of more than 50 µM.

In the case of `CC(C)Nc1nc2c(c(=O)n1-c1ccc(S(C)(=O)=O)cc1)CCN(C(=O)c1ccn3ncnc3c1)C2` [Compound C365], the EC50 in data set [1] (setting [3]) is more than 10 µM. In “in vitro” (setting [4]), this molecule showed a half-maximal cytotoxic concentration (CC50) at 3 days of more than 50 µM.

For `CNC(=O)c1ccc(-n2c(NCC3CC3C)nc3c(c2=O)C[C@@H](C)N(C(=O)c2ccc(Cl)c(Cl)c2)C3)cc1` (stereo partly drawn) [Compound C547], in data set [1] (setting [5]), the EC50 is 0.97 µM. In addition, in the data set “in vitro” (setting [2]), the CC50 at 3 days came out at 47.2 µM.

For the molecule `COc1ccc(CNc2nc3c(c(=O)n2-c2ccc(N4CCOCC4C(=O)O)cc2)CCN(C(=O)c2ccc(Cl)c(Cl)c2)C3)cc1` (stereo not drawn) [Compound C159, 4-{4-[7-(3,4-dichlorobenzoyl)-2-{[(4-methoxyphenyl)methyl]amino}-4-oxo-5,6,7,8-tetrahydropyrido[3,4-d]pyrimidin-3(4H)-yl]phenyl}morpholine-3-carboxylic acid], the EC50 in data set [1] (setting [3]) is 23.1 µM. Also, the CC50 at 3 days in the data set “in vitro” (setting [4]) was more than 50 µM.

As to `CNC(=O)c1ccc([C@@H](C)Nc2nc3c(c(=O)n2-c2ccc(C(=O)NC)cc2)C[C@@H](C)N(C(=O)c2ccc(Cl)c(Cl)c2)C3)cc1` (single isomer, unassigned) [Compound C530a], the EC50 in data set [1] (setting [5]) is more than 7.4 µM. The CC50 at 3 days in “in vitro” (setting [2]) is more than 50 µM.

On to `CNC(=O)c1ccc(-n2c(NC(C)C)nc3c(c2=O)C[C@@H](C)N(C(=O)c2ccc4c(c2)CNC4=O)C3)cc1` [Compound C494], for which the EC50 in data set [1] (setting [5]) came out at 2.64 µM. In the data set “in vitro” (setting [2]), the CC50 at 3 days is more than 50 µM.

With `CNC(=O)c1ccc(-n2c(N[C@H](C)c3cccc(C(F)F)c3)nc3c(c2=O)C[C@@H](C)N(C(=O)c2ccc(Cl)c(Cl)c2)C3)cc1` (single isomer, unassigned) [Compound C660a], the EC50 in data set [1] (setting [5]) stood at 1.3 µM. This molecule gave a CC50 at 3 days in “in vitro” (setting [2]) of more than 50 µM.
